Six molecules from patent US8822517B2, “Arylosulfonamides for the treatment of CNS diseases” (Adamed SP. Z O.O., priority 2010, dated 2014) can be followed below.

The subject of assay [1] is adrenergic α1 receptor. As to the kind of experiment: Binding assay α1 (non-selective), [3H]prazosin, rat cerebral cortex. The following applies: percent inhibition of control specific binding; compounds tested at 1×10^−6 M. An outline of the steps: (§1)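 Compounds were screened at 1×10^−6 M, and bound radioactivity was measured by scintillation counting. Specific binding equals total binding minus nonspecific binding obtained with an excess of unlabelled ligand.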

Assay [2] addresses dopaminergic D2 receptor (Homo sapiens, UniProt P14416). As to the kind of experiment: Binding assay D2S (h), [3H]methyl-spiperone, HEK-293 cells. Details: expressed in transfected cells; host or cells: HEK-293 cells. Particulars: read-out: D2 [%]. A digest of the protocol: as §1
Assay [3] concerns the target T1, serotoninergic 5-HT7 receptor (Homo sapiens, UniProt P34969). As to the kind of experiment: Cellular functional assay, serotoninergic 5-HT7 receptor (agonism/antagonism). Particulars: for activation at 1 µM: agonist effect, percent of control specific agonist response, compounds tested at 1×10^−6M, read-out: 5-HT7-ag [%]; for inhibition at 1 µM: read-out: 5-HT7-antag. [%]. Format: cell-based. As for the experimental part:
(§2) The compounds were tested at the concentration of 1×10^−6M.
(§3) In the Tables ag refers to agonism, and antag to antagonism).

Assay [4] has as its target T2, serotoninergic 5-HT6 receptor (Homo sapiens, UniProt P50406). As to the kind of experiment: Cellular functional assay, serotoninergic 5-HT6 receptor (agonism/antagonism). The assay is classed as cell-based. The following applies: for activation at 1 µM: agonist effect, percent of control specific agonist response, compounds tested at 1×10^−6M, read-out: 5-HT6-ag [%]; for inhibition at 1 µM: read-out: 5-HT6-antag. [%]. As for the experimental part:
as §2, §3

Assay [5] addresses T3, serotoninergic 5-HT1A receptor (Homo sapiens, UniProt P08908).
T3 sequence (P08908 1-422): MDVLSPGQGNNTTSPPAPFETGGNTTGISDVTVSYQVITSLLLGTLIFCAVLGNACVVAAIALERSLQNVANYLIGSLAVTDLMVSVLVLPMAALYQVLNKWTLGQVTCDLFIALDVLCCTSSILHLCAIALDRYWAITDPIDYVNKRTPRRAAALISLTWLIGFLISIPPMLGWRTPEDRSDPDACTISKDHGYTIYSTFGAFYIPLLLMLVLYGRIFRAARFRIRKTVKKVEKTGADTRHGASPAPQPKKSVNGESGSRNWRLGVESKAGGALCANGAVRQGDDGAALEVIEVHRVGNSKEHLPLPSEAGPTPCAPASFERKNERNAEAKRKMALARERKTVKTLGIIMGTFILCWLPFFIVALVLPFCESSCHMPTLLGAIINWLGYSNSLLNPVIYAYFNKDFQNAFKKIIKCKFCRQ
As to the kind of experiment: Binding assay 5-HT1A (h), [3H]8-OH-DPAT, HEK-293 cells. The following applies: read-out: 5-HT1A. Details: expressed in transfected cells; host or cells: HEK-293 cells. An outline of the steps: as §1

The target in assay [6] is serotoninergic 5-HT2A receptor (Homo sapiens, UniProt P28223). As to the kind of experiment: Binding assay 5-HT2A (h), [3H]ketanserin, HEK-293 cells. The following applies: read-out: 5-HT2A. Also on record: expressed in transfected cells; host or cells: HEK-293 cells. An outline of the steps: as §1
Assay [7] has as its target T4, adrenergic α2C receptor (Homo sapiens, UniProt P18825).
T4 sequence (P18825 1-462): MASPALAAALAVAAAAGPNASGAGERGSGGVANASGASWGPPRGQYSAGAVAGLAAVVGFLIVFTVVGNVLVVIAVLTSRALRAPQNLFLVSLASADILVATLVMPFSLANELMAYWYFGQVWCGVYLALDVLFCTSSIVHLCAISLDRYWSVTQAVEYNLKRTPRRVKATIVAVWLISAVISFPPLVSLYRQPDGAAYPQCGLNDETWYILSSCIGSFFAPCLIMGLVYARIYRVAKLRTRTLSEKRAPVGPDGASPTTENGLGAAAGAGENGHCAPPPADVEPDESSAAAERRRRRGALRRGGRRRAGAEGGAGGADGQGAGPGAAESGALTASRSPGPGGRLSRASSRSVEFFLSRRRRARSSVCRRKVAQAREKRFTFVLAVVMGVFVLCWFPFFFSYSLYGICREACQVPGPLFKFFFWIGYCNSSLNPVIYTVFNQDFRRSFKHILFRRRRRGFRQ
As to the kind of experiment: Binding assay α2C (h), [3H]RX 821002, CHO cells. Details: expressed in transfected cells; host or cells: CHO cells. Particulars: read-out: α2C [%]. An outline of the steps:
as §1

In assay [8] the target is T2, serotoninergic 5-HT6 receptor. As to the kind of experiment: Binding assay 5-HT6 (h), [3H]LSD, CHO cells. Particulars: read-out: 5-HT6. Also on record: expressed in transfected cells; host or cells: CHO cells. An outline of the steps:
as §1

In assay [9] the target is T5, serotonine transporter (SERT) receptor (Homo sapiens, UniProt P31645).
T5 construct: expressed in transfected cells; host or cells: CHO cells
As to the kind of experiment: Binding assay SERT (h), [3H]imipramine, CHO cells. The following applies: read-out: SERT [%]. A digest of the protocol:
as §1

Assay [10] addresses histaminergic H1 receptor (Homo sapiens, UniProt P35367). As to the kind of experiment: Binding assay H1 (h), [3H]pyrilamine, HEK-293 cells. Also on record: expressed in transfected cells; host or cells: HEK-293 cells. The following applies: read-out: H1 [%]. An outline of the steps: as §1
In assay [11] the target is T6, serotoninergic receptor 5-HT2C (Homo sapiens, UniProt P28335).
T6 construct: expressed in transfected cells; host or cells: HEK-293 cells
T6 sequence (P28335 33-458): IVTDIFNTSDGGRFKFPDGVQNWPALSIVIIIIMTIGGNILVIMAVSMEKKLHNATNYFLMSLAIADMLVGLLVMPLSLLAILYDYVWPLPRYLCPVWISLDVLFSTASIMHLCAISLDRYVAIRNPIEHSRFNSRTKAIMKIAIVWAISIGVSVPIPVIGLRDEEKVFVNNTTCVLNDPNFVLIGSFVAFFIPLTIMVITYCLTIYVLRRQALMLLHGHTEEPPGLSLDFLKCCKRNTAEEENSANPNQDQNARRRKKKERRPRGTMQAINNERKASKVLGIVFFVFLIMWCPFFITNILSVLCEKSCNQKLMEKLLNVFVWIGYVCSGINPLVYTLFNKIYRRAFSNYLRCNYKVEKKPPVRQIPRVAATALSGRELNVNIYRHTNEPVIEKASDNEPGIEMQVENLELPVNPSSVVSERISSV
As to the kind of experiment: Binding assay 5-HT2C (h), [3H]mesulergine, HEK-293 cells. The following applies: read-out: 5-HT2C [%]. An outline of the steps:
as §1

The test system of assay [12] is sigma σ receptor. As to the kind of experiment: Binding assay σ (non-selective), [3H]DTG, rat cerebral cortex. Particulars: percent inhibition of control specific binding; compounds tested at 1×10^−6 M. A digest of the protocol: as §1
Assay [13] deals with dopaminergic D3 receptor (Homo sapiens, UniProt P35462). As to the kind of experiment: Binding assay D3 (h), [3H]methyl-spiperone, CHO cells. Details: expressed in transfected cells; host or cells: CHO cells. The following applies: read-out: D3 [%]. An outline of the steps:
as §1

In assay [14] the target is T1, serotoninergic 5-HT7 receptor. As to the kind of experiment: Binding assay 5-HT7 (h), [3H]LSD, CHO cells. Particulars: read-out: 5-HT7. Details: expressed in transfected cells; host or cells: CHO cells. A digest of the protocol:
as §1

Assay [15] addresses T7, muscarinic M3 receptor (Homo sapiens, UniProt P20309).
T7 construct: expressed in transfected cells; host or cells: CHO cells
As to the kind of experiment: Binding assay M3 (h), [3H]4-DAMP, CHO cells. The following applies: read-out: M3 [%]. An outline of the steps: as §1

T7 sequence (P20309 whole entry): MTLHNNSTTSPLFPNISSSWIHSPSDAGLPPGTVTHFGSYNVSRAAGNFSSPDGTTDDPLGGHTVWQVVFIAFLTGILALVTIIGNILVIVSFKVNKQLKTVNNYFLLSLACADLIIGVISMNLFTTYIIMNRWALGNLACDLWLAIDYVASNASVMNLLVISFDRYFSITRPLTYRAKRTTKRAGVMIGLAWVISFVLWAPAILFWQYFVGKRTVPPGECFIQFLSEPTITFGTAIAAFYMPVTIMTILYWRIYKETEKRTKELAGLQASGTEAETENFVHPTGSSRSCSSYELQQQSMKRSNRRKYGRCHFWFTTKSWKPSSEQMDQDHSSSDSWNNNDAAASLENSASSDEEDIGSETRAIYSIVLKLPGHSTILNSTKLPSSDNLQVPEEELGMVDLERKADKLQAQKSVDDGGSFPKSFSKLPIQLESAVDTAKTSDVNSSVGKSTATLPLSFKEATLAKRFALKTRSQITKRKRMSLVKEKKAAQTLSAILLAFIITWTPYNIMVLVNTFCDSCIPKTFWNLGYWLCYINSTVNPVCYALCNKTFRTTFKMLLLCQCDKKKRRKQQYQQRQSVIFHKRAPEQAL
T2 sequence (P50406 whole entry): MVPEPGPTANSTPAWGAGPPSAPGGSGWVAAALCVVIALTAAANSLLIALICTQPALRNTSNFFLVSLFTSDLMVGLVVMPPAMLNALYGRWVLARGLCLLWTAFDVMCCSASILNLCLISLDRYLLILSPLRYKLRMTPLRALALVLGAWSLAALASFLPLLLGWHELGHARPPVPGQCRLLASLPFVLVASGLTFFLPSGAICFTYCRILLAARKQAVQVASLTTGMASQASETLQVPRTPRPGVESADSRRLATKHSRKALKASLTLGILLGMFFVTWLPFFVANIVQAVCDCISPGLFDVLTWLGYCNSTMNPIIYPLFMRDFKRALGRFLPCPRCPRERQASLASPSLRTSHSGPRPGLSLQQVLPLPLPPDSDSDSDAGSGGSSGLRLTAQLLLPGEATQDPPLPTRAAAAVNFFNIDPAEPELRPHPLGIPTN
Sequence of dopaminergic D3 receptor (P35462 whole entry): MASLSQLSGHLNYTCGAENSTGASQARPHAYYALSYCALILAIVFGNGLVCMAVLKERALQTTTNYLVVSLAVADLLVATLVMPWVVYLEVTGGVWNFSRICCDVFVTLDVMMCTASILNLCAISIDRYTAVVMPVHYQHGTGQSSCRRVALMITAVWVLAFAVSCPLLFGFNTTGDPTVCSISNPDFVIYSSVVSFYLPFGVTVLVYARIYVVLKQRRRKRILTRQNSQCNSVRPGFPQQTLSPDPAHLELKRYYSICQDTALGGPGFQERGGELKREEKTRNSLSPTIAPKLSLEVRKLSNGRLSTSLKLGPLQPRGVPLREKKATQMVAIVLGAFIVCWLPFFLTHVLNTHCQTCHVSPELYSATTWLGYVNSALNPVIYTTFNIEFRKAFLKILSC
Sequence of histaminergic H1 receptor (P35367 whole entry): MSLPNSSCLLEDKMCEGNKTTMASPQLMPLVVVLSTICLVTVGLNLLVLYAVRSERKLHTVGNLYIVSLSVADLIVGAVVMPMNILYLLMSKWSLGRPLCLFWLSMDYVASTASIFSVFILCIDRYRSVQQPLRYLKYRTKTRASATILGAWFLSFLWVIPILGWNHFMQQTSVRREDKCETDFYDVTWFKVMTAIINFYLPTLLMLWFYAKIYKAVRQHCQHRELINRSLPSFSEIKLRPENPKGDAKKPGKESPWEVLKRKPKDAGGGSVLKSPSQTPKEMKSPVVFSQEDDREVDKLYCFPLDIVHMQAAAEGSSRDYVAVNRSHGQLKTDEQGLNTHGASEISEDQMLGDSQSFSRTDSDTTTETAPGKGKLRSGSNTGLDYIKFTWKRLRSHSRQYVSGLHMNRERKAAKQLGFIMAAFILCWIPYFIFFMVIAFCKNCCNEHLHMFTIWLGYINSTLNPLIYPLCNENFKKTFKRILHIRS
Sequence of dopaminergic D2 receptor (P14416 1-414 isoform P14416-2): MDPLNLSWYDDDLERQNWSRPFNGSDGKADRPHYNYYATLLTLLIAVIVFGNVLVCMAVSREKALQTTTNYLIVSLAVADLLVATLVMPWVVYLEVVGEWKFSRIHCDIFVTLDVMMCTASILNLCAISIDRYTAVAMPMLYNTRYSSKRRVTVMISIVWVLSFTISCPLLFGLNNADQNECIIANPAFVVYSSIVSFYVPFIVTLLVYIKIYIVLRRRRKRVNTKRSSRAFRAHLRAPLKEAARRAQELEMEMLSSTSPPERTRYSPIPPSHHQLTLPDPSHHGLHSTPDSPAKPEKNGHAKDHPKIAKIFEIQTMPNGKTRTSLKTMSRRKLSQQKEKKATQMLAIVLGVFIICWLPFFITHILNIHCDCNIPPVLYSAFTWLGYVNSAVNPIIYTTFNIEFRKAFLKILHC
Sequence of serotoninergic 5-HT2A receptor (P28223 whole entry): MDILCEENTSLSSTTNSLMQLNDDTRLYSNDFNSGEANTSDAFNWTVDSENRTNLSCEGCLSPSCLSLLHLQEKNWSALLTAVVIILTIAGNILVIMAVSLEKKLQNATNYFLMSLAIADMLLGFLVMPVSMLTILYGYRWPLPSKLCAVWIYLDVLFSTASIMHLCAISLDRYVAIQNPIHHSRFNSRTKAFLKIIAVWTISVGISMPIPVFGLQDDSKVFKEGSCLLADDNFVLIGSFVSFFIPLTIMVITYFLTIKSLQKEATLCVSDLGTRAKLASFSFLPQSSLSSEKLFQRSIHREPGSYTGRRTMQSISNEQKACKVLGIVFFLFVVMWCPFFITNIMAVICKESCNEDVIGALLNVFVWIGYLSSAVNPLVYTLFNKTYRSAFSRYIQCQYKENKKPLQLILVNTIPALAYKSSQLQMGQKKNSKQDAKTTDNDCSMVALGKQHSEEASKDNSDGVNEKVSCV
T1 sequence (P34969 whole entry): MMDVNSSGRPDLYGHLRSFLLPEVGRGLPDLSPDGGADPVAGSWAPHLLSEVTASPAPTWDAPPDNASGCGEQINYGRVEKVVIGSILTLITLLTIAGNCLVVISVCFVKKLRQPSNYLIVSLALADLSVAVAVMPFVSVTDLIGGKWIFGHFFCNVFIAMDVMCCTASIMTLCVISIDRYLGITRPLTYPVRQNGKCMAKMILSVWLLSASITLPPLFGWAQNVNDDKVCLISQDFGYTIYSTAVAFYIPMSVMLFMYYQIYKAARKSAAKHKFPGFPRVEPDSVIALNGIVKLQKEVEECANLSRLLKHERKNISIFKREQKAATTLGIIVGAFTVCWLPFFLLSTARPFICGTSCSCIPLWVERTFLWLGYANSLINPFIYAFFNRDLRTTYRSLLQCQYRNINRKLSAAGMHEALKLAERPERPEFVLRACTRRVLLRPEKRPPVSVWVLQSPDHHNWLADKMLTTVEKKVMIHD
T5 sequence (P31645 whole entry): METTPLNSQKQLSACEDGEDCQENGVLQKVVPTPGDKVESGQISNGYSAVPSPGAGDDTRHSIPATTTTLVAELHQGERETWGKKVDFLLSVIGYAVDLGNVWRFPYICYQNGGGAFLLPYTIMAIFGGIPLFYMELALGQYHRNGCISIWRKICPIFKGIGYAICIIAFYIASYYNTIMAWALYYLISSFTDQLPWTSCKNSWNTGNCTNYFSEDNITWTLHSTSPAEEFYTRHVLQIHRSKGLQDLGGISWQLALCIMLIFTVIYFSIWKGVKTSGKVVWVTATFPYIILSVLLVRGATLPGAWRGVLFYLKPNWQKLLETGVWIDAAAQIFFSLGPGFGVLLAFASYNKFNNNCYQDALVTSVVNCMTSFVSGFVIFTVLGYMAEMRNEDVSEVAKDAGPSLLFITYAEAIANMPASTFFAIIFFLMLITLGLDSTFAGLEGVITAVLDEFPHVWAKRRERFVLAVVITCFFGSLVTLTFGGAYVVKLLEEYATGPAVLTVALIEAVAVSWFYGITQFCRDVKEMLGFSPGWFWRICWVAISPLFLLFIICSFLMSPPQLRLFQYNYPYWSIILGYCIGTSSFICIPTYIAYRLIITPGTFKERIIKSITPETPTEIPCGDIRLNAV

In the case of `O=c1[nH]c2ccc(S(=O)(=O)NCCCCN3CCN(c4nsc5ccccc45)CC3)cc2o1` [Compound 4, N-(4-(4-(1,2-Benzothiazol-3-yl)piperazin-1-yl)butyl)-2-oxo-3H-1,3-benzoxazole-6-sulphonamide], the “α1 [%]” value in [1] came out at 96%. Besides, the inhibition at 1 µM in assay [2] amounted to 96%; in [3] it was 81%; in assay [4], 37%; in assay [5], 99%; in [6] it was 99%; in assay [7], 96%. The inhibition at 1 µM in assay [8] worked out at 87%; in assay [9], 26%; in assay [10], 100%; in [11], 91%; in [13] it was 98%; in assay [14], 97%. For the same molecule, the inhibition at 1 µM in [15] was 3%. In addition, the activation at 1 µM in [3] and in assay [4] was -1% throughout. In [12], the “σ [%]” value amounted to 1%.
Take `O=S(=O)(NCCN1CCN(c2nsc3ccccc23)CC1)c1cccc2ccccc12` [Compound 9, N-(2-(4-(1,2-Benzothiazol-3-yl)piperazin-1-yl)ethyl)naphthalene-1-sulphonamide]: the “α1 [%]” value in [1] was 74%. The inhibition at 1 µM in [2] was 91%; in assay [3], 48%; in assay [4], -4%; in [5] it was 98%; in [6], 99%; in assay [7], 98%. In addition, the inhibition at 1 µM in assay [8] amounted to 22%; in assay [9], 29%; in assay [10], 77%; in [11] it was 24%; in [13], 90%; in assay [14], 98%. For the same molecule, the inhibition at 1 µM in assay [15] was -2%. The activation at 1 µM in [3] and in assay [4] was 0% each time. Further, in [12], the “σ [%]” value is 23%.
Turning to `O=S(=O)(NCCN1CCN(c2nsc3ccccc23)CC1)c1ccc2ccccc2c1` [Compound 10, N-(2-(4-(1,2-Benzothiazol-3-yl)piperazin-1-yl)ethyl)naphthalene-2-sulphonamide], in assay [1], the “α1 [%]” value worked out at 79%. Besides, the inhibition at 1 µM in assay [2] was 94%; in assay [3], 85%; in assay [4], -16%; in [5], 97%; in assay [6], 99%; in assay [7], 98%. Besides, the inhibition at 1 µM in assay [8] was found to be 37%; in assay [9], 50%; in assay [10] it was 81%; in assay [11], 54%; in assay [13] it was 97%; in [14], 99%. In assay [15], the inhibition at 1 µM was -2%. For the same molecule, the activation at 1 µM in assay [3] stood at 0%; in assay [4] it was 1%. Moreover, the “σ [%]” value in [12] turned out to be 31%.
On to `Cc1cccc(S(=O)(=O)NCCN2CCN(c3nsc4ccccc34)CC2)c1` [Compound 11, N-(2-(4-(1,2-Benzothiazol-3-yl)piperazin-1-yl)ethyl)-3-methylbenzenesulphonamide], for which, in assay [1], the “α1 [%]” value came to 85%. Also, the inhibition at 1 µM is 89% in [2]; 85% in assay [3]; -10% in assay [4]; 99% in assay [5]; 99% in [6]; 94% in assay [7]. In addition, the inhibition at 1 µM in assay [8] was 54%; in assay [9], 1%; in assay [10], 74%; in assay [11], 40%; in [13], 91%; in assay [14], 99%. In assay [15], the inhibition at 1 µM is -6%. Further, the activation at 1 µM was 0% in [3] and -1% in assay [4]. The “σ [%]” value in [12] is 21%.
With `O=c1[nH]c2ccc(S(=O)(=O)NCCN3CCN(c4nsc5ccccc45)CC3)cc2o1` [Compound 12, N-(2-(4-(1,2-Benzothiazol-3-yl)piperazin-1-yl)ethyl)-2-oxo-3H-1,3-benzoxazole-6-sulphonamide], in assay [1], the “α1 [%]” value stood at 67%. Further, the inhibition at 1 µM is 93% in assay [2]; 68% in [3]; -2% in assay [4]; 99% in [5]; 99% in [6]; 83% in assay [7]. In addition, the inhibition at 1 µM in assay [8] was 80%; in assay [9], 7%; in [10], 79%; in [11], 17%; in assay [13] it was 92%; in [14], 89%. Also, the inhibition at 1 µM in assay [15] was -9%. The activation at 1 µM in assay [3] and in assay [4] was -1% in each case. In assay [12], the “σ [%]” value was found to be 4%.
As for `Cc1cccc(S(=O)(=O)NCCCCN2CCC(c3noc4cc(F)ccc34)CC2)c1` [Compound 19, N-[4-[4-(6-Fluoro-1,2-benzoxazol-3-yl)piperidin-1-yl]butyl]-3-methylbenzenesulphonamide], the “α1 [%]” value in [1] is reported as 99%. The inhibition at 1 µM in assay [2] was determined as 97%; in assay [3], 99%; in assay [4] it was 23%; in assay [5] it was 64%; in assay [6], 100%; in assay [7], 100%. The inhibition at 1 µM was 69% in [8]; 8% in [9]; 79% in assay [10]; 56% in assay [11]; 90% in assay [13]; 100% in [14]. Besides, the inhibition at 1 µM in assay [15] is 9%. For the same molecule, the activation at 1 µM in [3] and in assay [4] was -1% in each case. For the same molecule, in assay [12], the “σ [%]” value worked out at 92%.
